In patent publication US20240325312A1, “Composition comprising cannabidiol and hydroxychloroquine in a fixed dose combination capsule” (priority 2021, published 2024):

Experiments:
[1] = tested on: human peripheral blood mononuclear cells (PBMCs); assay: LPS-stimulated cytokine release from human PBMCs, checkerboard, Luminex; assay type: cell-based
Procedure: The anti-inflammatory activity the combination of CBD and hydroxychloroquine was assessed by determining cytokine release from human peripheral blood mononuclear cells (PBMCs) stimulated with bacterial lipopolysaccharide (LPS) using a Luminex based assay. A 96-well microtitre plate-based checkerboard assay with seven concentrations (including the no drug control) of CBD and hydroxychloroquine were assessed in combination was used to determine the drug-drug interaction. Briefly, frozen PMBCs from two independent donors were thawed, diluted in culture medium, seeded into 96-well microtitre plates and incubated at 37° C., 5% CO2 for 1 hour prior to the addition of test compounds. After the addition of the test compounds the cells were returned to the incubator for 1 hour, after which LPS was added to the wells. Plates were incubated at 37° C., 5% CO2 for 24 hours. After 24 hours, cell culture supernatants were removed and analysed for cytokine levels using Luminex methodology according to manufacturers' instructions. All values had the vehicle background subtracted prior to further analysis. Three plates were set up in parallel using the PBMCs from the same donor. Inhibition of cytokine release was determined relative to the no treatment control (i.e., that was stimulated with LPS) and averaged across the three replicates. A cytotoxicity assay using AlmarBlue with the identical plate set up was performed in parallel.
(§1) Drug synergy was determined using the Bliss Independence method where the predicted effect of the drug combination is calculated using the equation: […]

C57BL/6 mice = assay: Lipopolysaccharide (LPS)-induced sepsis, serum cytokines; assay type: in vivo
Procedure: Male C57BL/6 mice weighing 10-20 g were used. Vehicle and active agents (i.e., CBD and hydroxychloroquine) alone or in combination were administered intraperitoneally (IP) or orally at 1 hour before LPS (100 μg/100 μL/mouse) injected intravenously (IV). At 2 hours after LPS injection, blood was collected from all mice by cardiac puncture, sera processed and assayed for biomarkers using either the Th17-plex for IL-1β, IL-2, IL-10, IL-12 (p70), IFN-γ and TNF-α by Luminex, plus IL-6 and D-dimer by ELISA, or the 23-plex for IL-1α, IL-1β, IL-2, IL-3, IL-4, IL-5, IL-6, IL-9, IL-10, IL-12(p40), IL-12(p70), IL-13, IL-17A, Eotaxin, G-CSF, GM-CSF, IFN-γ, KC, MCP-1(MCAF), MIP-1α, […], RANTES, and TNF-α by Luminex, plus IL-6 by ELISA. ANOVA followed by Dunnett's test was applied for comparison between vehicle and treatment groups. p<0.05 is considered significant.
For synergy analysis, data were baseline subtracted using the cytokine levels of sham treated mice (i.e., no LPS injection), before normalizing the values for each cytokine relative to maximum values across the groups. The normalized values were used to calculate the relative inhibition where a value of 1 represents complete inhibition and a value of 0 represents no inhibition. Synergy was calculated using the statistical methods described elsewhere herein.
as §1

BALB/c mice = assay: TNBS-induced colitis; assay type: in vivo; details: H&E
Description: Male BALB/c were used as an in vivo model of colitis, induced by intracolonic administration of 2,4,6-trinitrobenzene sulfonic acid (TNBS) in 50% ethanol, as previously described by Antoniou et al. (2016, Annals of Medicine and Surgery, 11: 9-15). Briefly, the ethanol disrupts the intestinal barrier, permitting TNBS to interact with colon proteins. Interaction of TNBS with high-molecular weight proteins renders them immunogenic, leading to Th1 mediated inflammation, which is causative of symptoms include inconsistent stool formation and blood in the faeces. […]
Other endpoint measures of stool consistency score (i.e., 0—normal stools, 1, soft but still formed stools, 2—very soft stools, 3—diarrhoea), faecal occult blood score (i.e., 0—negative hemoccult, 1—positive hemoccult, 2—blood traces in stool visible, 3—rectal bleeding), colon weight, colon macroscopic damage score (a composite of adhesions, strictures, ulcers/inflammations and wall thickness) and myeloperoxidase levels in the colon tissue were also assessed. The data from each of these endpoints was baseline subtracted using the equivalent measures from sham treated mice (i.e., no TNBS) and reduction in any measure calculated as a relative reduction. Synergy was calculated using the statistical methods described elsewhere herein.

Lewis rats [2] = assay: Collagen-induced arthritis; assay type: in vivo; set-up: key to Relative reduction in pannus score / Relative reduction in total histology score / Reduction in pannus score / Reduction in total histology score / Reduction in IL-1B / Reduction in IL-6 / Reduction in clinical score: fractional reduction vs vehicle control, sham baseline subtracted
Procedure: Female Lewis rats were challenged with porcine type-II collagen with Freund's adjuvant on Day 1 (0.2 mg/0.2 mL/rat) by subcutaneous injection at the base of the tail to induce arthritis. A booster injection at 0.1 mg/0.1 mL/rat) was administered on Day 7. On Day 16, rats were allocated into groups of six based on hind paw volume, with animals allocated into groups to provide a similar distribution of hind paw volumes.
Vehicle and active agents (i.e., CBD and hydroxychloroquine) alone or in combination were administered intraperitoneally (IP) once a day starting from Day 17 to Day 30, i.e., for a total of 14 consecutive days.
Disease was assessed by measuring hind paw volume with plethysmometer and using a qualitative severity score system as outlined in Table 16 on Day 1, 7, 10, 14, 16, 18, 20, 22, 24, 26, 28 and 30.
Post-termination on Day 30, blood was collected from all rats and analysed for levels of the inflammatory cytokines […], IL-6 and TNF-α by ELISA. Both hind paws were harvested, weighed and formalin-fixed for histopathology. Tissue was assessed to evaluate cartilage and bone destruction by pannus formation and mononuclear cell infiltration in synovial tissues according to the scoring matrices set out in Tables 17 and 18. A total histology score, being the sum of the pannus formation and mononuclear cell infiltration score, was also calculated.
For synergy analysis, data were baseline subtracted using sham treated […] (i.e., no collagen injection), before normalizing the values relative to vehicle control. Synergy was calculated using the statistical methods described elsewhere herein.

Lewis rats [3] = assay: Collagen-induced arthritis; assay type: in vivo; details: Day 30

C=C(C)[C@@H]1CCC(C)=C[C@H]1c1c(O)cc(CCCCC)cc1O [CBD, cannabidiol] was tested, and the “FIE, IL-1α release” value ([1]; Donor 1, CBD 5.00 μg/mL) was 0.40, the “FIE, IL-1β release” value ([1]; Donor 1, CBD 5.00 μg/mL) was 0.38 and the “FIE, IL-6 release” value ([1]; Donor 1, CBD 5.00 μg/mL) was 0.08. For the same molecule, the “FIE, MIP-1α release” value ([1]; Donor 1, CBD 5.00 μg/mL) was 0.12, the “FIE, TNF-α release” value ([1]; Donor 1, CBD 5.00 μg/mL) was 0.05 and the “FIE, IL-1α release” value ([1]; Donor 2, CBD 5.00 μg/mL) was 0.28. The “FIE, IL-1β release” value ([1]; Donor 2, CBD 5.00 μg/mL) was 0.13, the “FIE, IL-6 release” value ([1]; Donor 2, CBD 5.00 μg/mL) was 0.09 and the “FIE, MIP-1α release” value ([1]; Donor 2, CBD 5.00 μg/mL) was 0.00. For the same molecule, the “FIE, TNF-α release” value ([1]; Donor 2, CBD 5.00 μg/mL) was 0.07, the “Relative inhibition of IFN-γ release” value (C57BL/6 mice; CBD 10 mg/kg) was 0.00 and the “Relative inhibition of IL-1β release” value (C57BL/6 mice; CBD 10 mg/kg) was 0.34. For the same molecule, the “Relative inhibition of IL-6 release” value (C57BL/6 mice; CBD 10 mg/kg) was 0.14, the “Relative inhibition of IL-12(p70) release” value (C57BL/6 mice; CBD 10 mg/kg) was 0.00 and the “Relative inhibition of TNF-α release” value (C57BL/6 mice; CBD 10 mg/kg) was 0.00. The “Relative inhibition of IL-6 release” value (C57BL/6 mice; CBD 25 mg/kg) was 0.03, the “Colon tissue histology finding (FIG. 4)” value (BALB/c mice; CBD (1 mg/kg)) was “regions of inflammatory cell infiltration in submucosal edema” and the “Relative reduction in pannus score” value (Lewis rats [2]; Day 30, CBD 1 mg/kg) was 0.07. For the same molecule, the “Relative reduction in serum IL-6 level” value (Lewis rats [2]; Day 30, CBD 1 mg/kg) was 0.50, the “Relative reduction in total histology score” value (Lewis rats [2]; Day 30, CBD 1 mg/kg) was 0.11 and the “Relative reduction in serum IL-1β level” value (Lewis rats [3]; CBD 1 mg/kg) was 0.31.
With CCN(CCO)CCCC(C)Nc1ccnc2cc(Cl)ccc12 (stereo not drawn) [HCQ, 2-[[4-[(7-chloro-4-quinolinyl)amino]pentyl]-thylamino]ethanol] the “FIE, IL-1α release” value ([1]; Donor 1, HCQ 0.63 μg/mL) was 0.03, the “FIE, IL-1β release” value ([1]; Donor 1, HCQ 0.63 μg/mL) was 0.08 and the “FIE, IL-6 release” value ([1]; Donor 1, HCQ 0.63 μg/mL) was 0.12. The “FIE, TNF-α release” value ([1]; Donor 1, HCQ 0.63 μg/mL) was 0.00, the “FIE, IL-1α release” value ([1]; Donor 1, HCQ 1.25 μg/mL) was 0.01 and the “FIE, IL-1β release” value ([1]; Donor 1, HCQ 1.25 μg/mL) was 0.07. For the same molecule, the “FIE, IL-6 release” value ([1]; Donor 1, HCQ 1.25 μg/mL) was 0.00, the “FIE, TNF-α release” value ([1]; Donor 1, HCQ 1.25 μg/mL) was 0.08 and the “FIE, IL-1α release” value ([1]; Donor 1, HCQ 2.50 μg/mL) was 0.12. For the same molecule, the “FIE, IL-1β release” value ([1]; Donor 1, HCQ 2.50 μg/mL) was 0.08, the “FIE, IL-6 release” value ([1]; Donor 1, HCQ 2.50 μg/mL) was 0.10 and the “FIE, MIP-1α release” value ([1]; Donor 1, HCQ 2.50 μg/mL) was 0.00. For the same molecule, the “FIE, TNF-α release” value ([1]; Donor 1, HCQ 2.50 μg/mL) was 0.05, the “FIE, IL-1α release” value ([1]; Donor 1, HCQ 5.00 μg/mL) was 0.24 and the “FIE, IL-1β release” value ([1]; Donor 1, HCQ 5.00 μg/mL) was 0.17. The “FIE, IL-6 release” value ([1]; Donor 1, HCQ 5.00 μg/mL) was 0.08, the “FIE, TNF-α release” value ([1]; Donor 1, HCQ 5.00 μg/mL) was 0.02 and the “FIE, IL-1α release” value ([1]; Donor 1, HCQ 10.00 μg/mL) was 0.50. The “FIE, IL-1β release” value ([1]; Donor 1, HCQ 10.00 μg/mL) was 0.68, the “FIE, IL-6 release” value ([1]; Donor 1, HCQ 10.00 μg/mL) was 0.00 and the “FIE, TNF-α release” value ([1]; Donor 1, HCQ 10.00 μg/mL) was 0.04. The “FIE, IL-1α release” value ([1]; Donor 1, HCQ 20.00 μg/mL) was 0.54, the “FIE, IL-1β release” value ([1]; Donor 1, HCQ 20.00 μg/mL) was 0.81 and the “FIE, IL-6 release” value ([1]; Donor 1, HCQ 20.00 μg/mL) was 0.12. The “FIE, MIP-1α release” value ([1]; Donor 1, HCQ 20.00 μg/mL) was 0.00, the “FIE, TNF-α release” value ([1]; Donor 1, HCQ 20.00 μg/mL) was 0.30 and the “FIE, IL-1α release” value ([1]; Donor 2, HCQ 0.63 μg/mL) was 0.07. For the same molecule, the “FIE, IL-1β release” value ([1]; Donor 2, HCQ 0.63 μg/mL) was 0.06, the “FIE, IL-1α release” value ([1]; Donor 2, HCQ 1.25 μg/mL) was 0.11 and the “FIE, IL-1α release” value ([1]; Donor 2, HCQ 2.50 μg/mL) was 0.19. The “FIE, IL-1β release” value ([1]; Donor 2, HCQ 2.50 μg/mL) was 0.07, the “FIE, IL-1α release” value ([1]; Donor 2, HCQ 5.00 μg/mL) was 0.49 and the “FIE, TNF-α release” value ([1]; Donor 2, HCQ 5.00 μg/mL) was 0.02. For the same molecule, the “FIE, IL-1α release” value ([1]; Donor 2, HCQ 10.00 μg/mL) was 0.68, the “FIE, IL-6 release” value ([1]; Donor 2, HCQ 10.00 μg/mL) was 0.11 and the “FIE, MIP-1α release” value ([1]; Donor 2, HCQ 10.00 μg/mL) was 0.00. For the same molecule, the “FIE, TNF-α release” value ([1]; Donor 2, HCQ 10.00 μg/mL) was 0.18, the “FIE, IL-1α release” value ([1]; Donor 2, HCQ 20.00 μg/mL) was 0.63 and the “FIE, IL-6 release” value ([1]; Donor 2, HCQ 20.00 μg/mL) was 0.47. The “FIE, MIP-1α release” value ([1]; Donor 2, HCQ 20.00 μg/mL) was 0.00, the “Colon tissue histology finding (FIG. 4)” value (BALB/c mice; hydroxychloroquine (2.5 mg/kg)) was “regions of mild abnormality, cyctic dilation and aberrant crypts” and the “Reduction in clinical score” value (Lewis rats [2]; Day 24, HCQ 25 mg/kg) was 0.21. For the same molecule, the “Reduction in paw volume” value (Lewis rats [2]; Day 24, HCQ 25 mg/kg) was 0.10, the “Relative reduction in pannus score” value (Lewis rats [2]; Day 30, HCQ 2.5 mg/kg) was 0.07 and the “Relative reduction in serum IL-6 level” value (Lewis rats [2]; Day 30, HCQ 2.5 mg/kg) was 0.51. For the same molecule, the “Relative reduction in total histology score” value (Lewis rats [2]; Day 30, HCQ 2.5 mg/kg) was 0.15, the “Reduction in clinical score” value (Lewis rats [2]; Day 30, HCQ 25 mg/kg) was 0.26 and the “Reduction in paw volume” value (Lewis rats [2]; Day 30, HCQ 25 mg/kg) was 0.20. For the same molecule, the “Reduction in mononuclear cell infiltration” value (Lewis rats [2]; HCQ 25 mg/kg) was 0.24, the “Reduction in pannus score” value (Lewis rats [2]; HCQ 25 mg/kg) was 0.28 and the “Reduction in total histology score” value (Lewis rats [2]; HCQ 25 mg/kg) was 0.26. For the same molecule, the “Reduction in IL-1B” value (Lewis rats [2]; serum, HCQ 25 mg/kg) was 0.25, the “Reduction in IL-6” value (Lewis rats [2]; serum, HCQ 25 mg/kg) was 0.36 and the “Relative reduction in serum IL-1β level” value (Lewis rats [3]; HCQ 2.5 mg/kg) was 0.37.
